Residues, ends and D or L forms follow the SMILES beside them.
target: BMAL1 (Homo sapiens, UniProt O00327); set-up: PASB domain (residues 338–449); Protein thermal shift (PTS) fragment screen on recombinant human BMAL1(PASB), shift of melting temperature; conditions: binder
Sequence (O00327 338-449): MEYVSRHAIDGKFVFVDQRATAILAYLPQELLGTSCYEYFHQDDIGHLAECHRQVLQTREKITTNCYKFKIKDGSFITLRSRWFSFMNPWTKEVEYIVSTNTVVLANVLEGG

Row | SMILES | Bmal1(PASB) dTmB
1 | NCCc1ccc(S(N)(=O)=O)cc1 [Prestw-Frag-1076, Compound 338] | -0.53

same assay, conditions: dTmB; binder

Row | SMILES | Bmal1(PASB) dTmB
2 | CN1[C@@H]2CC[C@H]1CC(O)C2 (some centres unmarked) [Prestw-Frag-0608, Compound 128] | -0.41 °C
3 | CC(C)(C)NCC(O)COc1ccccc1C1CCCC1 (centres unmarked) [Prestw-Frag-0674, Compound 468] | -1.95 °C
4 | O=c1ccc2ccccc2o1 [Prestw-Frag-1000, Compound 307] | -0.26 °C
5 | Nc1cc2ccccc2oc1=O [Prestw-Frag-1001, Compound 197] | 0.68 °C
6 | Cc1cc(-c2ccccc2)nnc1N [Prestw-Frag-1003, Compound 243] | -0.88 °C
7 | NC(=O)NS(=O)(=O)c1ccccc1 [Prestw-Frag-1006, Compound 100] | 0.09 °C
8 | CC(=O)Nc1nncs1 [Prestw-Frag-1008, Compound 401] | -0.09 °C
9 | Nc1nncs1 [Prestw-Frag-1009, Compound 188] | -0.33 °C
10 | COC(=O)C(c1ccccc1)c1ccccc1 [Prestw-Frag-1013, Compound 353] | -1.32 °C
11 | c1ccc2c3c([nH]c2c1)CNCC3 [Prestw-Frag-1014, Compound 154] | -0.81 °C
12 | Cc1cc(C(C)(C)CC(C)(C)C)ccc1O [Prestw-Frag-1016, Compound 351] | 0.69 °C
13 | C[N+](C)(CCO)Cc1ccccc1 [Prestw-Frag-1017, Compound 159] | -0.27 °C
14 | NC(=O)Cc1cccs1 [Prestw-Frag-1019, Compound 237] | -0.24 °C
15 | NCCCCc1ccccc1 [Prestw-Frag-1031, Compound 371] | -0.34 °C
16 | COc1ccc(Cc2ccc(OC)cc2)cc1 [Prestw-Frag-1033, Compound 354] | -0.11 °C
17 | NCc1c(N)ccc(Cl)c1Cl [Prestw-Frag-1039, Compound 337] | 0.01 °C
18 | O=C(O)c1ccccc1O [Prestw-Frag-1045, Compound 55] | -0.68 °C
19 | CCC(=O)NC1=NC=NC2=NC=NC21 (centres unmarked) [Prestw-Frag-1047, Compound 47] | -0.65 °C
20 | Nc1nc2ccccc2n1Cc1ccc(F)cc1 [Prestw-Frag-1050, Compound 460] | -1.64 °C
21 | COc1ccc(CCN2CCC(N)CC2)cc1 [Prestw-Frag-1051, Compound 427] | -0.58 °C
22 | CC(C)(Oc1ccccc1)C(=O)O [Prestw-Frag-1053, Compound 221] | 0.07 °C

Row | SMILES | Bmal1(PASB) dTmB
23 | Nc1ccc[nH]c1=O [Prestw-Frag-1060, Compound 123] | -2.04 °C
24 | COc1cc2c(cc1O)CCN[C@H]2C [Prestw-Frag-1063, Compound 388] | -0.57 °C
25 | COc1ccc(CCN)cc1O [Prestw-Frag-1064, Compound 320] | -0.32 °C
26 | O=[N+]([O-])c1ccc(CO)cc1 [Prestw-Frag-1071, Compound 105] | -0.41 °C
27 | CCC1=C(C)CN(C(=O)NCCc2ccccc2)C1=O [Prestw-Frag-1075, Compound 420] | -0.68 °C
28 | CC(=O)c1cc(Cl)ccc1O [Prestw-Frag-1083, Compound 280] | -0.22 °C
29 | O=c1[nH]c2ccccc2o1 [Prestw-Frag-1087, Compound 245] | -0.27 °C
30 | CC(=O)c1ccc(N2CCNCC2)c(F)c1 [Prestw-Frag-1094, Compound 141] | -0.42 °C
31 | Cc1ncsc1CCO [Prestw-Frag-1098, Compound 189] | -0.60 °C
32 | NC(=O)[C@H](N)c1ccccc1 [Prestw-Frag-1099, Compound 271] | -0.22 °C
33 | OC(c1ccccc1)c1ccc(Cl)cc1 (centres unmarked) [Prestw-Frag-1106, Compound 474] | -2.07 °C
34 | c1ccc(N2CCNCC2)nc1 [Prestw-Frag-1110, Compound 364] | -0.48 °C
35 | COC(=O)c1scc(C)c1N [Prestw-Frag-1111, Compound 362] | -0.95 °C
36 | CCN(Cc1ccccc1)c1ccccc1 [Prestw-Frag-1121, Compound 375] | -1.19 °C
37 | OC(c1ccccc1)c1ccccc1 [Prestw-Frag-1122, Compound 454] | -1.61 °C
38 | NCC(CC(=O)O)c1ccccc1 (centres unmarked) [Prestw-Frag-1125, Compound 234] | -0.06 °C
39 | O=C(O)CCc1ccc(Cl)cc1 [Prestw-Frag-1126, Compound 340] | -0.19 °C
40 | Cc1oncc1C(N)=O [Prestw-Frag-1128, Compound 133] | -0.10 °C
41 | Cc1c(O)c2ccccc2oc1=O [Prestw-Frag-1130, Compound 324] | 0.05 °C
42 | O=c1cc(O)c2ccccc2o1 [Prestw-Frag-1131, Compound 301] | 0.28 °C
43 | COc1ccc2ccncc2c1 [Prestw-Frag-1133, Compound 321] | -1.08 °C

Row | SMILES | Bmal1(PASB) dTmB
44 | Cn1c(=O)[nH]c2nc[nH]c2c1=O [Prestw-Frag-1138, Compound 38] | -0.59 °C
45 | CNC(C)(C)Cc1ccccc1 [Prestw-Frag-1141, Compound 101] | -0.69 °C
46 | COc1cc(N)ncn1 [Prestw-Frag-1154, Compound 185] | -0.03 °C
47 | Oc1cccc2c1CCCC2 [Prestw-Frag-1156, Compound 412] | -1.05 °C
48 | Cc1nnc(N)s1 [Prestw-Frag-1161, Compound 49] | -1.77 °C
49 | C(=C\c1ccccc1)/CN1CCNCC1 [Prestw-Frag-1163, Compound 295] | -0.92 °C
50 | c1ccc2[nH]c(CN3CCCC3)nc2c1 [Prestw-Frag-1164, Compound 180] | -0.18 °C
51 | COc1ccc(N)nn1 [Prestw-Frag-1167, Compound 140] | -0.58 °C
52 | OC(Cn1ccnc1)c1ccc(Cl)cc1Cl (centres unmarked) [Prestw-Frag-1182, Compound 411] | -0.85 °C
53 | COc1cc2ccncc2cc1OC [Prestw-Frag-1183, Compound 290] | -1.26 °C
54 | Nc1ccc(Cl)nn1 [Prestw-Frag-1184, Compound 263] | -0.26 °C
55 | CN1CCC[C@H]1c1cccnc1 [Prestw-Frag-1187, Compound 13] | -0.52 °C
56 | Cc1c(N)cccc1C(F)(F)F [Prestw-Frag-1189, Compound 334] | -0.15 °C
57 | O=C(O)c1cccnc1Nc1ccccc1 [Prestw-Frag-1191, Compound 63] | 0.02 °C
58 | c1ccc(C(CCN2CCCCC2)c2ccccc2)cc1 [Prestw-Frag-1193, Compound 402] | -2.05 °C
59 | CC(Oc1ccccc1)C(N)=O (centres unmarked) [Prestw-Frag-1200, Compound 240] | -0.43 °C
60 | CN1CCN(c2nccc(N)n2)CC1 [Prestw-Frag-1204, Compound 238] | -0.40 °C
61 | CS(=O)(=O)c1ccc(N)cc1 [Prestw-Frag-1214, Compound 111] | -0.40 °C
62 | COc1cccc2c1CCCC2=O [Prestw-Frag-1236, Compound 356] | -1.28 °C
63 | Oc1ccc(-c2ccc(F)cc2F)cc1 [Prestw-Frag-1237, Compound 467] | -0.75 °C
64 | O=C(O)c1cccc(-c2ccc(F)cc2F)c1 [Prestw-Frag-1238, Compound 368] | -0.92 °C

Row | SMILES | Bmal1(PASB) dTmB
65 | O=C(O)c1cc(-c2ccc(F)cc2)ccc1O [Prestw-Frag-1239, Compound 277] | -1.13 °C
66 | O=C(O)c1cc(-c2ccccc2)ccc1O [Prestw-Frag-1240, Compound 74] | -0.48 °C
67 | CC(C)C1NCCc2c1[nH]c1ccccc21 (centres unmarked) [Prestw-Frag-1264, Compound 134] | -1.09 °C
68 | NC1=NCCN1 [Prestw-Frag-1268, Compound 246] | -0.47 °C
69 | COc1cc2c(cc1OC)C(C)N(C)CC2 (centres unmarked) [Prestw-Frag-1273, Compound 218] | -0.29 °C
70 | C[C@H](N)C(=O)N1CCC[C@H]1C(=O)O [Prestw-Frag-1275, Compound 264] (H-Ala-Pro-OH) | -0.70 °C
71 | OCc1cc2ccccc2[nH]1 [Prestw-Frag-1297, Compound 419] | 0.70 °C
72 | CCc1cccc2c(CCO)c[nH]c12 [Prestw-Frag-1299, Compound 129] | -0.11 °C
73 | OCCn1ccnc1 [Prestw-Frag-1303, Compound 120] | 0.13 °C
74 | C[C@H]1NC(=O)NC1=O [Prestw-Frag-1311, Compound 224] | -0.36 °C
75 | COc1ccc(C(=O)O)cc1N1CCCC1 [Prestw-Frag-1313, Compound 40] | -0.37 °C
76 | O=C(O)c1ccccc1Nc1cccc(Cl)c1 [Prestw-Frag-1319, Compound 28] | -2.88 °C
77 | Cc1cccc(Nc2ccccc2C(=O)O)c1 [Prestw-Frag-1320, Compound 17] | -0.74 °C
78 | Nc1cccc(C(F)(F)F)c1 [Prestw-Frag-1322, Compound 231] | 0.29 °C
79 | Fc1ccc(C(c2ccc(F)cc2)N2CCNCC2)cc1 [Prestw-Frag-1323, Compound 452] | -2.55 °C
80 | CN1CCN(C(c2ccccc2)c2ccccc2)CC1 [Prestw-Frag-1325, Compound 405] | -0.51 °C
81 | COc1ccccc1OCCCO [Prestw-Frag-1335, Compound 370] | 4.16 °C
82 | OCC(O)COc1ccccc1 (centres unmarked) [Prestw-Frag-1337, Compound 306] | 0.63 °C
83 | COc1ccccc1OCCO [Prestw-Frag-1338, Compound 363] | 0.76 °C
84 | CCC(C(=O)OCCN(CC)CC)c1ccccc1 (centres unmarked) [Prestw-Frag-1343, Compound 396] | -1.01 °C
85 | OC(c1ccc(Cl)cc1)c1ccccn1 (centres unmarked) [Prestw-Frag-1346, Compound 414] | -1.29 °C

same assay, conditions: dTmB; binder; Bmal1(PASB) dTmB

Row | SMILES | Bmal1(PASB) dTmB
86 | CC1=NN(c2ccccc2)C(=O)C1 [Prestw-Frag-1028, Compound 259] | 0.76 °C

Reference: article PMC12037410, “Pharmacological targeting of BMAL1 modulates circadian and immune pathways” (Nature Chemical Biology, 2025)
